From patent US8623857B2, “N-phenyl imidazole carboxamide inhibitors of 3-phosphoinositide-dependent protein kinase-1” (Merck Sharp & Dohme Corp., priority 2010, dated 2014)

target: T1, recombinant human PDK1 (Homo sapiens, UniProt O15530); assay: PDK1 IMAP fluorescence polarization assay (inhibition of peptide substrate phosphorylation); format: biochemical; settings: Table 6; 10 nM PDK1 enzyme, 100 nM peptide substrate, 100 nM PIFtide, 2.5 uM ATP, 1.5 hours
T1 construct: containing amino acids 51-556 of the human PDK1 enzyme; made in house; host or cells: Sf9 insect cells
T1 sequence (O15530 51-556): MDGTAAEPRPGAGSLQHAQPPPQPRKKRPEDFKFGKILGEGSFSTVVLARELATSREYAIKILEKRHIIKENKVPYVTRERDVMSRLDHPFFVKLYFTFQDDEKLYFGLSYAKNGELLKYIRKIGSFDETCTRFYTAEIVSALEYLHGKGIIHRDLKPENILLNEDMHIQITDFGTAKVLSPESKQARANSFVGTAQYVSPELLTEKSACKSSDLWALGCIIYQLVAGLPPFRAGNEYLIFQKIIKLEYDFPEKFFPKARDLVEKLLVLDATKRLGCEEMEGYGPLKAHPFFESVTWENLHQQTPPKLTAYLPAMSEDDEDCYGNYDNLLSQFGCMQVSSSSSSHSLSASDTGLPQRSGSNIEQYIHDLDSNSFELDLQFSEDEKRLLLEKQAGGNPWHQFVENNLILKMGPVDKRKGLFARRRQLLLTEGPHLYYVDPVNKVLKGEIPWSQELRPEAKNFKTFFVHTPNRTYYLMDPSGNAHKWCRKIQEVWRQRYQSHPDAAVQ

`CN(C)CCOc1ccccc1NC(=O)c1nc(-c2cnn(Cc3ccccc3)c2)c[nH]1` [Compound 6, N-[2-[2-(dimethylamino)ethoxy]phenyl]-4-[1-(phenylmethyl)-1H-pyrazol-4-yl]-1H-imidazole-2-carboxamide] was tested. Which IC50 did it give?
Its IC50 is 1000 to 5000 nM.

Which IC50 does the source give for `Cc1cc(-c2c[nH]c(C(=O)Nc3cccc(F)c3N3CCC4CCNC4C3)n2)ccn1` (centres unmarked) [Compound 43, N-[3-fluoro-2-(octahydro-6h-pyrrolo[2,3-c]pyridin-6-yl)phenyl]-4-(2-methyl-4-pyridinyl)-1H-imidazole-2-carboxamide] here?
The IC50 was 51 to 250 nM.

How did the IC50 turn out when `Nc1ccc(N2CCC[C@@H](N)C2)c(NC(=O)c2ncc[nH]2)c1` [Compound 1, N-[5-amino-2-(3(R)-amino-1-piperidinyl)phenyl]-1H-imidazole-2-carboxamide] was run?
Its IC50 is 51 to 250 nM.

For `CN(C)CC1CCN(c2ccccc2NC(=O)c2nc(-c3ccnc(N)c3)c[nH]2)CC1` [Compound 40, 4-(2-amino-4-pyridinyl)-N-[2-[4-[(dimethylamino)methyl]-1-piperidinyl]phenyl]-1H-imidazole-2-carboxamide], which IC50 is on record?
Its IC50 is 251 to 1000 nM.

Which IC50 does the source give for `N[C@@H]1CCCN(c2c(F)cccc2NC(=O)c2nc(-c3ccnc(C(F)(F)F)c3)c[nH]2)C1` [Compound 19, N-[2-(3(R)-amino-1-piperidinyl)-3-fluorophenyl]-4-[2-(trifluoromethyl)-4-pyridinyl]-1H-imidazole-2-carboxamide] here?
Its IC50 is 51 to 250 nM.

With `N[C@@H]1CCCN(c2c(F)cccc2NC(=O)c2nc(-c3cnn(Cc4cccs4)c3)c[nH]2)C1` [Compound 5, N-[2-(3(R)-amino-1-piperidinyl)-3-fluorophenyl]-4-[1-(2-thienylmethyl)-1H-pyrazol-4-yl]-1H-imidazole-2-carboxamide] as the molecule, how does the IC50 read?
Its IC50 is 51 to 250 nM.

Which IC50 does the source give for `CC(=O)Nc1cc(-c2c[nH]c(C(=O)Nc3cccc(F)c3N3CCC(CN)CC3)n2)ccn1` [Compound 33, 4-[2-(acetylamino)-4-pyridinyl]-N-[2-[4-(aminomethyl)-1-piperidinyl]-3-fluorophenyl]-1H-imidazole-2-carboxamide] here?
Its IC50 is 51 to 250 nM.

Which IC50 does the source give for `Cc1cc(-c2c[nH]c(C(=O)Nc3cccc(F)c3N3CCC4(CCCNC4)CC3)n2)ccn1` [Compound 46, N-[2-(2,9-diazaspiro[5,5]undec-9-yl)-3-fluorophenyl]-4-(2-methyl-4-pyridinyl)-1H-imidazole-2-carboxamide] here?
The IC50 was 51 to 250 nM.

For `CNC1(C(N)=O)CCN(c2ccc(N)cc2NC(=O)c2ncc[nH]2)CC1` [Compound 2, 1-[4-amino-2-[(1H-imidazol-2-ylcarbonyl)amino]phenyl]-4-(methylamino)-4-piperidinecarboxamide], which IC50 is on record?
The IC50 was 1000 to 5000 nM.

How did the IC50 turn out when `NCC1CCN(c2c(F)cccc2NC(=O)c2nc(-c3cc(NCc4ccc(F)cc4)nc(N)n3)c[nH]2)CC1` [Compound 71, 4-[2-amino-6-[[(4-fluorophenyl)methyl]amino]-4-pyrimidinyl]-N-[2-[4-(aminomethyl)-1-piperidinyl]-3-fluorophenyl]-1H-imidazole-2-carboxamide] was run?
Its IC50 is 1 to 50 nM.

With `N[C@@H]1CCCN(c2c(F)cccc2NC(=O)c2nc(-c3ccnc(O)c3)c[nH]2)C1` [Compound 25, N-[2-(3(R)-amino-1-piperidinyl)-3-fluorophenyl]-4-(2-hydroxy-4-pyridinyl)-1H-imidazole-2-carboxamide] as the molecule, how does the IC50 read?
The IC50 was 1000 to 5000 nM.

For `Cc1cc(-c2c[nH]c(C(=O)Nc3cccc(F)c3N3CCC(C(=O)NC4CCCCC4N)CC3)n2)ccn1` (centres unmarked) [Compound 84, N-(2-aminocyclohexyl)-1-[2-fluoro-6-[[[4-(2-methyl-4-pyridinyl)-1H-imidazol-2-yl]carbonyl]amino]phenyl]-4-piperidinecarboxamide], which IC50 is on record?
Its IC50 is 51 to 250 nM.

`CNC(=O)C1CCN(c2c(F)cccc2NC(=O)c2nc(-c3ccnc(C)c3)c[nH]2)CC1` [Compound 59, 1-[2-fluoro-6-[[[4-(2-methyl-4-pyridinyl)-1H-imidazol-2-yl]carbonyl]amino]phenyl]-N-methyl-4-piperidinecarboxamide] was tested. Which IC50 did it give?
The IC50 was 1000 to 5000 nM.

How did the IC50 turn out when `CNc1cc(-c2c[nH]c(C(=O)Nc3cccc(F)c3N3CCC(CN)CC3)n2)ccn1` [Compound 32, N-[2-[4-(aminomethyl)-1-piperidinyl]-3-fluorophenyl]-4-[2-(methylamino)-4-pyridinyl]-1H-imidazole-2-carboxamide] was run?
Its IC50 is 1 to 50 nM.

How did the IC50 turn out when `N[C@@H]1CCCN(c2c(F)cccc2NC(=O)c2nc(-c3ccncc3)c[nH]2)C1` [Compound 10, N-[2-(3(R)-amino-1-piperidinyl)-3-fluorophenyl]-4-(4-pyridinyl)-1H-imidazole-2-carboxamide] was run?
The IC50 was 251 to 1000 nM.

With `NCC1CCN(c2ccc(N)cc2NC(=O)c2ncc[nH]2)CC1` [Compound 3, N-[5-amino-2-[4-(aminomethyl)-1-piperidinyl]phenyl]-1H-imidazole-2-carboxamide] as the molecule, how does the IC50 read?
The IC50 was 251 to 1000 nM.

same assay, conditions: Table 10; compounds 97-132

With `CNc1nc(-c2c[nH]c(C(=O)Nc3cccc(F)c3N3CCOC[C@H]3C)n2)cc(N2CC(C(=O)NC3CCCCC3)CCC2C)n1` (mixture of isomers) [Compound 122, N-cyclohexyl-1-(6-(2-(3-fluoro-2-((R)-3-methylmorpholino)phenylcarbamoyl)-1H-imidazol-4-yl)-2-(methylamino)pyrimidin-4-yl)-6-methylpiperidine-3-carboxamide] as the molecule, how does the IC50 read?
Its IC50 is 1 to 50 nM.

`NCC1CCN(c2c(F)cccc2NC(=O)c2nc(-c3ccc(=O)n(C(F)F)c3)c[nH]2)CC1` [Compound 97, N-(2-(4-(aminomethyl)piperidin-1-yl)-3-fluorophenyl)-4-(1-(difluoromethyl)-6-oxo-1,6-dihydropyridin-3-yl)-1H-imidazole-2-carboxamide] was tested. Which IC50 did it give?
The IC50 was 51 to 250 nM.

How did the IC50 turn out when `NCC1CCN(c2c(F)cccc2NC(=O)c2nc(-c3cc(N4CCOCC4)nc(N)n3)c[nH]2)CC1` [Compound 99, 4-(2-amino-6-morpholinopyrimidin-4-yl)-N-(2-(4-(aminomethyl)piperidin-1-yl)-3-fluorophenyl)-1H-imidazole-2-carboxamide] was run?
Its IC50 is 1 to 50 nM.

`CNc1nc(-c2c[nH]c(C(=O)Nc3cccc(F)c3N3CCC(CN)CC3)n2)cc(N2CCO[C@H](CN)C2)n1` [Compound 123, (R)-4-(6-(2-(aminomethyl)morpholino)-2-(methylamino)pyrimidin-4-yl)-N-(2-(4-(aminomethyl)piperidin-1-yl)-3-fluorophenyl)-1H-imidazole-2-carboxamide] was tested. Which IC50 did it give?
Its IC50 is 1 to 50 nM.

With `CNc1nc(-c2c[nH]c(C(=O)Nc3ccccc3N3CCNCC3)n2)cc(N2CCN(C(C)=O)CC2)n1` [Compound 103, 4-(6-(4-acetylpiperazin-1-yl)-2-(methylamino)pyrimidin-4-yl)-N-(2-(piperazin-1-yl)phenyl)-1H-imidazole-2-carboxamide] as the molecule, how does the IC50 read?
Its IC50 is 51 to 250 nM.

For `CNc1nc(-c2c[nH]c(C(=O)Nc3cccc(F)c3N3CCC(CN)CC3)n2)cc(N2CC[C@@](COC)(C(=O)NC3CCCCC3)C2)n1` [Compound 132, (R)—N-(2-(4-(aminomethyl)piperidin-1-yl)-3-fluorophenyl)-4-(6-(3-(cyclohexylcarbamoyl)-3-(methoxymethyl)pyrrolidin-1-yl)-2-(methylamino)pyrimidin-4-yl)-1H-imidazole-2-carboxamide], which IC50 is on record?
The IC50 was 1 to 50 nM.

`CNc1nc(-c2c[nH]c(C(=O)Nc3cccc(F)c3N3CCC(CN)CC3)n2)cc(N2CCN[C@@H](C)C2)n1` [Compound 124, (S)—N-(2-(4-(aminomethyl)piperidin-1-yl)-3-fluorophenyl)-4-(2-(methylamino)-6-(3-methylpiperazin-1-yl)pyrimidin-4-yl)-1H-imidazole-2-carboxamide] was tested. Which IC50 did it give?
The IC50 was 1 to 50 nM.
